Each structure is given as a SMILES string.

The target in the assay is T1, mTOR (Homo sapiens, UniProt P42345).
T1 construct: mTOR protein was isolated from HeLa cell cytoplasmic extract by immunoprecipitation; endogenous in cells; host or cells: HeLa cell cytoplasmic extract (immunoprecipitate)
As to the kind of experiment: Biological Assay: mTOR enzyme activity, mTOR immunoprecipitated from HeLa cell cytoplasmic extract, recombinant PHAS-1 as substrate. The assay is classed as biochemical. Particulars: Biological Assay, upper bounds; read-out: IC50 values against mTOR.
Description: For mTOR enzyme activity assays, mTOR protein was isolated from HeLa cell cytoplasmic extract by immunoprecipitation, and activity determined essentially as described previously using recombinant PHAS-1 as a substrate (ref. 21).
For `CC1CCCCN1c1nc(N2CCOCC2)c2ccc(-c3ccccc3)nc2n1` (stereo not shown) [1 h], the IC50 was below 10000 nM. The value for `C[C@@H]1CN(c2nc(N3CCOCC3)c3ccc(-c4ccoc4)nc3n2)C[C@H](C)O1` [Example 1aa] was below 1000 nM; that for `CC(=O)Nc1cccc(-c2ccc3c(N4CCOCC4)nc(N4C[C@@H](C)O[C@@H](C)C4)nc3n2)c1` [Example 1ab] was below 1000 nM; that for `C[C@@H]1CN(c2nc(N3CCOCC3)c3ccc(-c4ccncc4)nc3n2)C[C@H](C)O1` [Example 1ac] was below 1000 nM. For `C[C@@H]1CN(c2nc(N3CCOCC3)c3ccc(-c4cnn(C)c4)nc3n2)C[C@H](C)O1` [Example 1ad], the IC50 is below 1000 nM. Take `COc1ccc(-c2ccc3c(N4C[C@@H](C)O[C@@H](C)C4)nc(N4CCOCC4)nc3n2)cc1CO` [Example 1ae]: the IC50 was below 1000 nM. The value for `COCCN(CCOC)c1nc(N2CCOCC2)c2ccc(-c3ccc(OC)c(CO)c3)nc2n1` [Example 1af] was below 1000 nM; that for `CC(=O)c1ccc(-c2ccc3c(N4CCOCC4)nc(N4C[C@@H](C)O[C@@H](C)C4)nc3n2)s1` [Example 1ag] was below 1000 nM. In the case of `COc1ccc(-c2ccc3c(N4CCOCC4)nc(N4C[C@@H](C)O[C@@H](C)C4)nc3n2)cc1OC` [Example 1ah], the IC50 is below 1000 nM. The value for `C[C@@H]1CN(c2nc(N3CCOCC3)c3ccc(-c4cccc(C(N)=O)c4)nc3n2)C[C@H](C)O1` [Example 1ai] was below 1000 nM; that for `Cc1cccc(-c2ccc3c(N4CCOCC4)nc(N4C[C@@H](C)O[C@@H](C)C4)nc3n2)c1` [Example 1aj] was below 1000 nM; that for `C[C@@H]1CN(c2nc(N3CCOCC3)c3ccc(-c4ccc5c(c4)OCO5)nc3n2)C[C@H](C)O1` [Example 1ak] was below 10000 nM.

Turning to `C[C@@H]1CN(c2nc(N3CCOCC3)c3ccc(-c4ccc(Cl)s4)nc3n2)C[C@H](C)O1` [Example 1al], the IC50 was below 1000 nM. With `COC(=O)c1cccc(-c2ccc3c(N4CCOCC4)nc(N4C[C@@H](C)O[C@@H](C)C4)nc3n2)c1` [Example 1am] the figure was below 1000 nM. On to `C[C@@H]1CN(c2nc(N3CCOCC3)c3ccc(-c4cccc5ccccc45)nc3n2)C[C@H](C)O1` [Example 1an], for which the IC50 was below 1000 nM.

`C[C@@H]1CN(c2nc(N3CCOCC3)c3ccc(-c4ccc(OC(F)(F)F)cc4)nc3n2)C[C@H](C)O1` [Example 1ao]: the IC50 was below 1000 nM. With `C[C@@H]1CN(c2nc(N3CCOCC3)c3ccc(-c4ccc(C=O)s4)nc3n2)C[C@H](C)O1` [Example 1ap] the figure was below 1000 nM; with `CC(=O)c1ccc(-c2ccc3c(N4CCOCC4)nc(N4C[C@@H](C)O[C@@H](C)C4)nc3n2)cc1` [Example 1aq], below 1000 nM; with `C[C@@H]1CN(c2nc(N3CCOCC3)c3ccc(-c4ccc(C(=O)O)s4)nc3n2)C[C@H](C)O1` [Example 1ar], below 1000 nM. With `C[C@@H]1CN(c2nc(N3CCOCC3)c3ccc(-c4cccc(N5CCOCC5)c4)nc3n2)C[C@H](C)O1` [Example 1as] the figure was below 1000 nM.

Turning to `C[C@@H]1CN(c2nc(N3CCOCC3)c3ccc(-c4ccc5c(c4)OCCO5)nc3n2)C[C@H](C)O1` [Example 1at], the IC50 is below 1000 nM. The value for `C[C@@H]1CN(c2nc(N3CCOCC3)c3ccc(-c4cccc5cccnc45)nc3n2)C[C@H](C)O1` [Example 1ay] was below 10000 nM; that for `C[C@@H]1CN(c2nc(N3CCOCC3)c3ccc(-c4cncnc4)nc3n2)C[C@H](C)O1` [Example 1az] was below 10000 nM; that for `C[C@@H]1CN(c2nc(N3CCOCC3)c3ccc(-c4ccc5c(c4)OCCCO5)nc3n2)C[C@H](C)O1` [Example 1ba] was below 10000 nM.

Consider `CCC1CCCCN1c1nc(N2CCOCC2)c2ccc(-c3ccc(OC)c(CO)c3)nc2n1` (stereo not shown) [Example 1bc], for which the half-maximal inhibitory concentration (IC50) was below 100 nM. Take `Cc1ccc(-c2ccc3c(N4CCOCC4)nc(N4C[C@@H](C)O[C@@H](C)C4)nc3n2)cc1` [Example 1d]: the 50% inhibitory concentration (IC50) was below 100 nM. With `COc1ccc(-c2ccc3c(N4CCOCC4)nc(N4C[C@@H](C)O[C@@H](C)C4)nc3n2)cc1` [Example 1e] the figure was below 100 nM.

For the compound `C[C@@H]1CN(c2nc(N3CCOCC3)c3ccc(-c4ccsc4)nc3n2)C[C@H](C)O1` [Example 1i], the concentration for half-maximal inhibition (IC50) was below 100 nM. The value for `C[C@@H]1CN(c2nc(N3CCOCC3)c3ccc(-c4ccc(O)cc4)nc3n2)C[C@H](C)O1` [Example 1l] was below 100 nM; that for `C[C@@H]1CN(c2nc(N3CCOCC3)c3ccc(-c4ccc(C#N)cc4)nc3n2)C[C@H](C)O1` [Example 1n] was below 100 nM; that for `COc1ccc(-c2ccc3c(N4CCOCC4)nc(N(CCO)CCO)nc3n2)cc1CO` [Example 1o] was below 100 nM. The value for `COc1ccc(-c2ccc3c(N4C[C@@H](C)O[C@@H](C)C4)nc(N4CCOC[C@@H]4C)nc3n2)cc1CO` [Example 1p] was below 100 nM. Turning to `C[C@@H]1CN(c2nc(N3CCOCC3)c3ccc(-c4cccc(CO)c4)nc3n2)C[C@H](C)O1` [Example 1q], the IC50 was below 100 nM. With `Cc1ccc(-c2ccc3c(N4CCOCC4)nc(N4CCCC[C@@H]4C)nc3n2)cc1` [Example 1s] the figure was below 1000 nM; with `Cc1ccc(-c2ccc3c(N4CCOCC4)nc(N4C[C@@H](C)O[C@@H](C)C4)nc3n2)s1` [Example 1t], below 1000 nM.

For `COc1ccc(-c2ccc3c(N4CCOCC4)nc(N4CCCC[C@@H]4C)nc3n2)cc1` [Example 1u], the IC50 is below 1000 nM. The value for `Cc1cscc1-c1ccc2c(N3CCOCC3)nc(N3C[C@@H](C)O[C@@H](C)C3)nc2n1` [Example 1v] was below 1000 nM. With `COc1ccc(-c2ccc3c(N4CCOCC4)nc(N4C[C@@H](C)O[C@@H](C)C4)nc3n2)cc1F` [Example 1w] the figure was below 1000 nM; with `C[C@@H]1CN(c2nc(N3CCOCC3)c3ccc(-c4ccc5[nH]ccc5c4)nc3n2)C[C@H](C)O1` [Example 1x], below 1000 nM; with `Cc1cc(-c2ccc3c(N4CCOCC4)nc(N4C[C@@H](C)O[C@@H](C)C4)nc3n2)cs1` [Example 1y], below 1000 nM. The value for `C[C@@H]1CN(c2nc(N3CCOCC3)c3ccc(-c4ccc([N+](=O)[O-])cc4)nc3n2)C[C@H](C)O1` [Example 1z] was below 1000 nM; that for `C[C@@H]1CN(c2nc(N3CCOCC3)c3ccc(Nc4ccccc4)nc3n2)C[C@H](C)O1` [Example 2a] was below 1000 nM. For the compound `C[C@@H]1CN(c2nc(N3CCOCC3)c3ccc(Nc4ccc(Cl)cc4O)nc3n2)C[C@H](C)O1` [Example 2aa], the concentration for half-maximal inhibition (IC50) is below 1000 nM. With `C[C@@H]1CN(c2nc(N3CCOCC3)c3ccc(Nc4cc(F)c(F)cc4[N+](=O)[O-])nc3n2)C[C@H](C)O1` [Example 2ac] the figure was below 1000 nM; with `CSc1nc2ccc(Nc3ccc4c(N5CCOCC5)nc(N5C[C@@H](C)O[C@@H](C)C5)nc4n3)cc2s1` [Example 2ad], below 1000 nM. With `C[C@@H]1CN(c2nc(N3CCOCC3)c3ccc(Nc4ccc(C5SCCS5)cc4)nc3n2)C[C@H](C)O1` [Example 2ae] the figure was below 10000 nM; with `C[C@@H]1CN(c2nc(N3CCOCC3)c3ccc(NC4CCCCC4)nc3n2)C[C@H](C)O1` [Example 2af], below 1000 nM; with `C[C@@H]1CN(c2nc(N3CCOCC3)c3ccc(NC4CCCC4)nc3n2)C[C@H](C)O1` [Example 2ag], below 10000 nM.

For the compound `C[C@@H]1CN(c2nc(N3CCOCC3)c3ccc(NC4CC4)nc3n2)C[C@H](C)O1` [Example 2ah], the IC50 is below 1000 nM.

For orientation: IC50 means the point on the concentration scale where inhibition reaches its midpoint.
